Among the data in patent publication US20040192771A1, “Ether compounds and compositions for cholesterol management and related uses” (priority 2001, published 2004) are change in vivo and IC50 values, retold here.

Assay [1] concerns obese female Zucker rats. As to the kind of experiment: Oral daily treatment of obese female Zucker rats for fourteen days; serum lipids and glycemic control indicators. In kind it is in vivo. The following applies: Rattus norvegicus, 168 h; percent change from study prebleed; week 1; 97 mg/kg/day oral; read-out: HDL-C.
The subject of assay [2] is obese female Zucker rats. Described as above. In kind it is in vivo. The conditions noted are these: Rattus norvegicus, percent change from study prebleed; for change in vivo at 97 mg/kg/day: 97 mg/kg/day oral; for change in vivo at 100 mg/kg/day: 100 mg/kg/day oral. The protocol:
In a number of different experiments, illustrative compounds of the invention are administered daily at a dose of up to 100 mg/kg to chow fed obese female Zucker rats for fourteen days in the morning by oral gavage in 1.5% carboxymethylcellulose/0.2% Tween 20 or 20% ethanol/80% polyethylene glycol (dosing vehicles). Animals are weighed daily. Animals are allowed free access to rodent chow and water throughout the study except on days of blood sampling where food is restricted for six hours prior to blood sampling. Blood glucose is determined after the 6 hour fast in the afternoon without anesthesia from a tail vein. Serum is also prepared from pretreatment blood samples subsequently obtained from the orbital venous plexus (with O2/CO2 anesthesia) and following the fourteenth dose at sacrifice from the heart following O2/CO2 anesthesia. Serums are assayed for lipoprotein cholesterol profiles, triglycerides, total cholesterol, Non HDL cholesterol, HDL cholesterol, the ratio of HDL cholesterol to that of Non HDL cholesterol, insulin, non esterified fatty acids, and beta hydroxy butyric acid. The percent body weight gain and the ratio of liver to body weight is also determined. These are shown as absolute values or as a percent change of the pretreatment values in Table C. [drawing 479] [drawing 480]

The subject of another assay is primary rat hepatocytes. As to the kind of experiment: Inhibition of lipid synthesis ([1-14C]-acetate incorporation) in primary cultures of rat hepatocytes. Type of assay: cell-based. The conditions noted are these: Hepatocyte, total lipid synthesis, 4 hours incubation. The protocol:
Compounds were tested for inhibition of lipid synthesis in primary cultures of rat hepatocytes. Male Sprague-Dawley rats were anesthetized with intraperitoneal injection of sodium pentobarbital (80 mg/kg). Rat hepatocytes were isolated essentially as described by the method of Seglen (Seglen, P. O. Hepatocyte suspensions and cultures as tools in experimental carcinogenesis. J. Toxicol. Environ. Health 1979, 5, 551-560). Hepatocytes were suspended in Dulbecco's Modified Eagles Medium containing 25 mM D-glucose, 14 mM HEPES, 5 mM L-glutamine, 5 mM leucine, 5 mM alanine, 10 mM lactate, 1 mM pyruvate, 0.2% bovine serum albumin, 17.4 mM non-essential amino acids, 20% fetal bovine serum, 100 nM insulin and 20 μg/mL gentamycin) and plated at a density of 1.5×10^5 cells/cm^2 on collagen-coated 96-well plates. Four hours after plating, media was replaced with the same media without serum. Cells were grown overnight to allow formation of monolayer cultures. Lipid synthesis incubation conditions were initially assessed to ensure the linearity of [1-^14C]-acetate incorporation into hepatocyte lipids for up to 4 hours. Hepatocyte lipid synthesis inhibitory activity was assessed during incubations in the presence of 0.25 μCi [1-^14C]-acetate/well (final radiospecific activity in assay is 1 Ci/mol) and 0, 1, 3, 10, 30, 100 or 300 μM of compounds for 4 hours. At the end of the 4-hour incubation period, medium was discarded and cells were washed twice with ice-cold phosphate buffered saline and stored frozen prior to analysis. To determine total lipid synthesis, 170 μl of MicroScint-E® and 50 μl water was added to each well to extract and partition the lipid soluble products to the upper organic phase containing the scintillant. Lipid radioactivity was assessed by scintillation spectroscopy in a Packard TopCount NXT.

Setting [3] is: 168 h, week 1, read-out: Glucose.
Setting [4] is: 168 h, week 1, read-out: Insulin.
Setting [5] is: 168 h, week 1, read-out: Non-HDL-C.
Where [6] appears, read: 336 h, week 2, read-out: Glucose.
Where [7] appears, read: 336 h, week 2, read-out: Insulin.
[8] abbreviates: 336 h, week 2, read-out: Non-HDL-C.

Where two headings read alike, the source gives them in different places.

The term IC50 denotes the midpoint of a concentration-inhibition curve. A lower IC50 goes with inhibition by little substance. For `CC(C)(CO)CCCC1CCC(CCCC(C)(C)CO)O1` (centres unmarked) [Compound 138, 5-[5-(5-Hydroxy-4,4-dimethylpentyl)-tetrahydrofuran-2-yl]-2,2-dimethylpentan-1-ol], the change in vivo at 97 mg/kg/day in the assay on obese female Zucker rats [1] was 287%; in the assay on obese female Zucker rats [2] (setting [3]) it was 35%; in the assay on obese female Zucker rats [2] (setting [4]), 43%; in the assay with obese female Zucker rats [2] (setting [5]) it was 11%; in the assay with obese female Zucker rats [2] (168 h, week 1, read-out: TC), 128%; in the assay with obese female Zucker rats [2] (168 h, week 1, read-out: TG), -49%. Further, the change in vivo at 97 mg/kg/day with obese female Zucker rats [2] (setting [6]) is 10%; in the assay on obese female Zucker rats [2] (336 h, week 2, read-out: HDL-C), 140%; with obese female Zucker rats [2] (setting [7]), 69%; with obese female Zucker rats [2] (setting [8]), 31%; in the assay with obese female Zucker rats [2] (336 h, week 2, read-out: TC) it was 74%; in the assay with obese female Zucker rats [2] (336 h, week 2, read-out: TG), -13%. The compound also gave an IC50 in the assay with primary rat hepatocytes of 9 µM.
Turning to `CC(C)(CCCCOCCCCC(C)(C)CCC(=O)O)CCC(=O)O` [Compound 145, 4,4,14,14-Tetramethyl-9-oxaheptadecane-1,17-dioic acid], the change in vivo at 100 mg/kg/day is -1% in the assay on obese female Zucker rats [2] (setting [3]); 13% in the assay on obese female Zucker rats [2] (168 h, week 1, read-out: HDL-C); -34% in the assay with obese female Zucker rats [2] (setting [4]); -50% with obese female Zucker rats [2] (setting [5]); -3% with obese female Zucker rats [2] (168 h, week 1, read-out: TC); -80% in the assay on obese female Zucker rats [2] (168 h, week 1, read-out: TG). Besides, the change in vivo at 100 mg/kg/day with obese female Zucker rats [2] (setting [6]) is 16%; with obese female Zucker rats [2] (336 h, week 2, read-out: HDL-C) it was 39%; with obese female Zucker rats [2] (setting [7]), -45%; in the assay with obese female Zucker rats [2] (setting [8]), -30%; with obese female Zucker rats [2] (336 h, week 2, read-out: TC) it was 21%; in the assay on obese female Zucker rats [2] (336 h, week 2, read-out: TG), -73%. The compound further gave an IC50 in the assay on primary rat hepatocytes of 22 µM.
